US10207989B2, “Substituted alkyl diaryl derivatives, methods of preparation and uses” (TEMPLE UNIVERSITY—OF THE COMMONWEALTH SYSTEM OF HIGHER …, priority 2012, dated 2019)

Key:
[1] = system: K562 (chronic myelogenous leukemia; leukemia cell line +ve for Bcr-Abl); assay: Cancer cell assay, tumor cells K562; type: cell-based; settings: Homo sapiens, compound in DMSO 0.01 μM to 100 μM, examined 96 hours later, viable cells by trypan blue exclusion
Protocol: (§1) The effect of the compounds of the invention on tumor cells was determined by the assay described by Latham et al., Oncogene 12:827-837 (1996). Tumor cells K562 (chronic myelogenous leukemia; leukemia cell line +ve for Bcr-Abl) or DU145 (prostate cancer) were plated in 12-well dishes at a cell density of 2.5×10^4 cells well. The plated cells were treated 24 hours later with a compound of the invention dissolved in DMSO at multiple concentrations ranging from 0.01 μM to 100 μM. The plates were examined 96 hours later under an inverted microscope, Olympus CK-2 using a 10× objective, and compound activity was noted by physical observation. When necessary, the total number of viable cells was determined by trypsinizing the wells and counting the number of viable cells, as determined by trypan blue exclusion, using a hemacytometer.

[2] = system: DU145 (prostate cancer); assay: Cancer cell assay, tumor cells DU145; type: cell-based; settings: Homo sapiens, examined 96 hours later, viable cells by trypan blue exclusion
Protocol: as §1

[3] = DU-145, compound in DMSO 0.01 μM to 100 μM

| IC50 [1] | IC50 [2, 3] | melting point | Structure (SMILES) | IC50 ([1]; K562, 96 h) | IC50 ([2]; DU-145, 96 h, compound in DMSO 0.01 μM to 100 μM) |
| --- | --- | --- | --- | --- | --- |
| 75 µM | 75 µM |  | COc1ccc(CCNC(=O)c2ccc(OC)c([N+](=O)[O-])c2)cc1 [Example 32, 4-methoxy-N-(4-methoxyphenethyl)-3-nitrobenzamide] |  |  |
| > 10 µM | > 10 µM |  | COc1ccc(S(=O)(=O)NCCc2c(OC)cc(OC)cc2OC)cc1 [Example 28, 4-methoxy-N-(2,4,6-trimethoxyphenethyl)benzenesulfonamide] |  |  |
| 0.15 µM | 0.15 µM |  | COC(=O)CNc1cc(CS(=O)(=O)CCc2c(OC)cc(OC)cc2OC)ccc1OC [Example 8] |  |  |
| 75 µM | 75 µM |  | COc1ccc(CCNC(=O)c2ccc(OC)c(N)c2)cc1 [Example 33, 3-amino-4-methoxy-N-(4-methoxyphenethyl)benzamide] |  |  |
| 0.5 µM | 5 µM |  | COc1cc(OC)c(CCNC(=O)c2ccc(OC)c(N)c2)c(OC)c1 [Example 35, 3-amino-4-methoxy-N-(2,4,6-trimethoxyphenethyl)benzamide] |  |  |
| 0.0025 µM | 0.003 µM | 128 to 130 °C | COc1cc(OC)c(CCS(=O)(=O)Cc2ccc(OC)c(N)c2)c(OC)c1 [Example 3, 2-Methoxy-5-(((2,4,6-trimethoxyphenethyl)sulfonyl)methyl)aniline] |  |  |
| 75 µM | 75 µM |  | COc1cc(OC)c(CCNC(=O)c2ccc(OC)c([N+](=O)[O-])c2)c(OC)c1 [Example 34, 4-methoxy-3-nitro-N-(2,4,6-trimethoxyphenethyl)benzamide] |  |  |
| 0.15 µM | 5 µM |  | COc1cc(OC)c(CCC(=O)Nc2ccc(OC)c(N)c2)c(OC)c1 [Example 7, N-(3-Amino-4-methoxyphenyl)-3-(2,4,6-trimethoxyphenyl)propanamide] |  |  |
| 75 µM | 75 µM |  | COc1ccc(CCNS(=O)(=O)c2ccc(OC)cc2)cc1 [Example 27, 4-methoxy-N-(4-methoxyphenethyl)benzenesulfonamide] |  |  |
| 0.003 µM | 0.005 µM |  | COc1cc(OC)c(CCS(=O)(=O)Nc2ccc(OC)c(N)c2)c(OC)c1 [Example 19, N-(3-Amino-4-methoxyphenyl)-2-(2,4,6-trimethoxyphenyl)ethanesulfonamide] |  |  |
|  |  |  | COc1cc(OC)c(CCS(=O)(=O)Cc2ccc(OC)c(NCC(=O)O)c2)c(OC)c1 [Example 21, 2 ((2-methoxy-5-(((2,4,6-trimethoxyphenethyl)sulfonyl)methyl)phenyl)amino)acetate] | 0.04 µM | 0.15 µM |
| 1.5 µM | 1.5 µM | 142 to 144 °C | O=S(=O)(CCc1ccc(F)cc1)Cc1ccc(Cl)cc1 [Example 2, 1-Chloro-4-(((4-fluorophenethyl)sulfonyl)methyl)benzene] |  |  |
| 0.05 µM | 0.15 µM |  | COc1ccc(CS(=O)(=O)CCc2c(OC)cc(OC)cc2OC)cc1 [Example 20, 1,3,5-Trimethoxy-2-(2-((4-methoxybenzyl)sulfonyl)ethyl)benzene] |  |  |
| > 10 µM | > 10 µM |  | COc1cc(OC)c(CCNS(=O)(=O)c2ccc(C)cc2)c(OC)c1 [Example 29, 4-methyl-N-(2,4,6-trimethoxyphenethyl)benzenesulfonamide] |  |  |
| 35 µM | 35 µM |  | COc1ccc(CCNS(=O)(=O)c2ccc(OC)c([N+](=O)[O-])c2)cc1 [Example 23, 4-methoxy-N-(4-methoxyphenethyl)-3-nitrobenzenesulfonamide] |  |  |
| 0.75 µM | 5 µM |  | COc1cc(OC)c(CCNS(=O)(=O)c2ccc(OC)c(N)c2)c(OC)c1 [Example 26, 3-amino-4-methoxy-N-(2,4,6-trimethoxyphenethyl)benzenesulfonamide] |  |  |
| 60 µM | 60 µM |  | COc1ccc(CCNS(=O)(=O)c2ccc(C)cc2)cc1 [Example 22, N-(4-methoxyphenethyl)-4-methylbenzenesulfonamide] |  |  |
| 35 µM | 35 µM |  | COc1cc(OC)c(CCNS(=O)(=O)c2ccc(OC)c([N+](=O)[O-])c2)c(OC)c1 [Example 25, 4-methoxy-3-nitro-N-(2,4,6-trimethoxyphenethyl)benzenesulfonamide] |  |  |
| 2.5 µM | 15 µM |  | COc1ccc(CCS(=O)(=O)Nc2c(OC)cc(OC)cc2OC)cc1 [Example 36, 2-(4-methoxyphenyl)-N-(2,4,6-trimethoxyphenyl)ethanesulfonamide] |  |  |
| 10 µM | 10 µM | 265 to 267 °C | O=C(O)c1ccc(CCS(=O)(=O)Cc2ccc(Cl)cc2)cc1 [Example 6, 4-(2-((4-Chlorobenzyl)sulfonyl)ethyl)benzoic acid] |  |  |
| 100 µM | 75 µM |  | COc1ccc(CCNC(=O)c2ccc(OC)cc2)cc1 [Example 31, 4-methoxy-N-(4-methoxyphenethyl)benzamide] |  |  |
| 5 µM | 15 µM |  | COc1ccc(C(=O)NCCc2c(OC)cc(OC)cc2OC)cc1 [Example 30, 4-methoxy-N-(2,4,6-trimethoxyphenethyl)benzamide] |  |  |
| 2 µM | 2 µM | 86 to 88 °C | COC(=O)CN(CC(=O)OC)c1cc(CS(=O)(=O)CCc2c(OC)cc(OC)cc2OC)ccc1OC [Example 9, Dimethyl 2,2′-((2-methoxy-5-(((2,4,6-trimethoxyphenethyl)sulfonyl)methyl)phenyl)azanediyl)diacetate] |  |  |
| 0.003 µM | 0.0075 µM | 136 to 138 °C | COc1cc(OC)c(CCS(=O)(=O)Cc2ccc(OC)c(O)c2)c(OC)c1 [Example 5, 2-Methoxy-5-(((2,4,6-trimethoxyphenethyl)sulfonyl)methyl)phenol] |  |  |
| > 10 µM | > 10 µM |  | COc1cc(CS(=O)(=O)CCc2ccc(OC)c(OC)c2)ccc1O [Example 38, 4-(((3,4-dimethoxyphenethyl)sulfonyl)methyl)-2-methoxyphenol] |  |  |
| 5 µM | 15 µM |  | COc1cc(CSCCc2ccc(OC)c(OC)c2)ccc1O [Example 37, 4-(((3,4-dimethoxyphenethyl)thio)methyl)-2-methoxyphenol] |  |  |

| Structure (SMILES) | IC50 [1] | IC50 [2, 3] | melting point | IC50 ([1]; K562, 96 h) | IC50 ([2]; DU-145, 96 h, compound in DMSO 0.01 μM to 100 μM) |
| --- | --- | --- | --- | --- | --- |
| COc1cc(OC)c(CCS(=O)(=O)Cc2ccc(OC)c(NCC(=O)O)c2)c(OC)c1 [Example 4] | 0.5 µM | 0.25 µM | 146 to 150 °C |  |  |
